According to ChEMBL document CHEMBL5584231, “Rational design of a new short anticancer peptide with good potential for cancer treatment” (Eur J Med Chem, 2024):
The source made the active and inactive calls. The calls are words filed in the database; no cut-off is given here. Non-standard residues stand in square brackets, D forms with d. Residues, ends and D or L forms follow the SMILES beside them. Nle(6-COOH) = N[C@@H](CCCCC(=O)O)C(=O)O

Tests used:
[1] = Therapeutic index, ratio of HC10 for mouse RBC to IC50 for cytotoxicity against human A549 cells; type: toxicity, cell-based; settings: mouse RBC and A549 cells, read-out: TI
[2] = Cytotoxicity against HK-2 cells assessed as inhibition of cell growth incubated for 1 hr by MTT assay; type: toxicity, cell-based; settings: human
Cell membrane [3] = experiment: Induction of cell membrane damage in human MCF7 cells assessed as protein leakage at 1 to 2 times IC50 measured after 0.5 to 6 hrs by UV based analysis; type: cell membranes; settings: time 0.5-6 hrs
[4] = Therapeutic index, ratio of HC10 for mouse RBC to IC50 for cytotoxicity against human HeLa cells; type: toxicity, cell-based; settings: mouse RBC and HeLa cells, read-out: TI
Cell membrane [5] = experiment: Induction of morphological changes in cell membrane of human MCF7 cells assessed as cell depression at 1 times IC50 incubated for 1 hr by SEM analysis; type: cell membranes
Cell membrane [6] = experiment: Disruption of cell membrane integrity in human MCF7 cells assessed as increase in PI fluorescence measured after 1 hr by laser confocal scanning microscopic analysis; type: cell membranes
Cell membrane [7] = experiment: Disruption of cell membrane in human MCF7 cells assessed as LDH release at 40 uM incubated for 1 hr by fluorescence based microplate reader analysis relative to control; type: cell membranes
Cell membrane [8] = experiment: Induction of cell membrane damage in human MCF7 cells assessed as nucleic acid leakage at 1 to 2 times IC50 measured after 0.5 to 6 hrs by UV based analysis; type: cell membranes; settings: time 0.5-6 hrs
MCF7 = experiment: Cytotoxicity against human MCF7 cells assessed as inhibition of cell growth incubated for 1 hr by MTT assay; type: functional, cell-based; settings: MCF7, 1 h
A549 = experiment: Cytotoxicity against human A549 cells assessed as inhibition of cell growth incubated for 1 hr by MTT assay; type: functional, cell-based; settings: A549, 1 h
[9] = Therapeutic index, ratio of HC10 for mouse RBC to IC50 for cytotoxicity against RG cells (unknown origin); type: toxicity, cell-based; settings: mouse RBC and RG cells, read-out: TI
[10] = Hemolytic activity in mouse RBC at 12.5 uM incubated for 1 hr by absorbance based assay relative to control; type: toxicity, cell-based, Erythrocyte; settings: red blood cells (erythrocytes), read-out: Activity
Cell membrane [11] = experiment: Induction of morphological changes in cell membrane of human MCF7 cells assessed as membrane damage at 1 times IC50 incubated for 1 hr by SEM analysis; type: cell membranes
Cell membrane [12] = experiment: Disruption of cell membrane integrity in human MCF7 cells assessed as increase in PI fluorescence at 1 times IC50 by laser confocal scanning microscopic analysis; settings: time 0-120 min, TDE = time-dependent effect
HeLa = experiment: Cytotoxicity against human HeLa cells assessed as inhibition of cell growth incubated for 1 hr by MTT assay; type: functional, cell-based
[13] = Therapeutic index, ratio of HC10 for mouse RBC to IC50 for cytotoxicity against human MCF7 cells; type: toxicity, cell-based; settings: mouse RBC and MCF7 cells, read-out: TI
[14] = Cytotoxicity against RG cells (unknown origin) assessed as inhibition of cell growth incubated for 1 hr by MTT assay; type: functional, cell-based

## CC[C@H](C)[C@H](NC(=O)CN)C(=O)NCC(=O)N[C@@H](C)C(=O)N[C@H](C(=O)N[C@@H](CC(C)C)C(=O)N[C@@H](CCCCN)C(=O)N[C@H](C(=O)N[C@@H](CC(C)C)C(=O)N[C@H](C(=O)N[C@H](C(=O)NCC(=O)N[C@@H](CC(C)C)C(=O)N1CCC[C@H]1C(=O)N[C@@H](C)C(=O)N[C@@H](CC(C)C)C(=O)N[C@H](C(=O)N[C@@H](CO)C(=O)N[C@@H](Cc1c[nH]c2ccccc12)C(=O)N[C@H](C(=O)N[C@@H](CCCCN)C(=O)N[C@@H](CCCNC(=N)N)C(=O)N[C@@H](CCCCN)C(=O)N[C@@H](CCCNC(=N)N)C(=O)N[C@@H](CCC(N)=O)C(=O)N[C@@H](CCC(N)=O)C(N)=O)[C@@H](C)CC)[C@@H](C)CC)[C@@H](C)O)[C@@H](C)O)C(C)C)C(C)C [MELITTIN]
[1]
  selectivity ratio: 0.733
[2]
  IC50 at 1 h: 0.802 µM
Cell membrane [3]
  Activity: Active
[4]
  selectivity ratio: 1.44
Cell membrane [5]
  Activity: Active
Cell membrane [6]
  Activity: Dose-Dependent Effect
Cell membrane [7]
  Activity: 86.8%
Cell membrane [8]
  Activity: Active
MCF7
  IC50: 1.79 µM
A549
  IC50: 1.83 µM
[9]
  selectivity ratio: 0.859
[10]
  hemolysis at 1 h, 12.5 µM: > 85%
Cell membrane [11]
  Activity: Active
Cell membrane [12]
  Activity: Tde
HeLa
  IC50: 0.934 µM
[13]
  selectivity ratio: 0.747

## CC(C)C[C@H](NC(=O)[C@H](CCCCN)NC(=O)[C@H](CC(C)C)NC(=O)[C@H](CC(C)C)NC(=O)[C@H](CCCCN)NC(=O)[C@H](CCCCN)NC(=O)[C@H](CC(C)C)NC(=O)[C@H](CC(C)C)NC(=O)[C@H](CCCCN)NC(=O)[C@H](CCCCN)NC(=O)[C@H](CC(C)C)NC(=O)[C@H](CC(C)C)NC(=O)[C@H](CCCCN)NC(=O)[C@H](CCCCN)NC(=O)[C@H](CC(C)C)NC(=O)[C@H](CC(C)C)NC(=O)[C@H](CCCCN)NC(=O)[C@@H](N)CCCCN)C(N)=O (H-KKLLKKLLKKLLKKLLKL-NH2)
[1]
  selectivity ratio: 1.11
[2]
  IC50 at 1 h: 15.1 µM
[4]
  selectivity ratio: 1.8
MCF7
  IC50: 5.88 µM
A549
  IC50: 5.61 µM
[14]
  IC50: 9.04 µM
[9]
  selectivity ratio: 0.686
HeLa
  IC50: 3.45 µM
[13]
  selectivity ratio: 1.05

## CC(C)C[C@H](NC(=O)[C@H](CCCCN)NC(=O)[C@H](CCCCN)NC(=O)[C@H](CC(C)C)NC(=O)[C@H](CC(C)C)NC(=O)[C@H](CCCCN)NC(=O)[C@H](CCCCN)NC(=O)[C@H](CC(C)C)NC(=O)[C@H](CC(C)C)NC(=O)[C@H](CCCCN)NC(=O)[C@H](CCCCN)NC(=O)[C@H](CC(C)C)NC(=O)[C@@H](N)CC(C)C)C(=O)N[C@@H](CCCCC(=O)O)C(N)=O (H-LLKKLLKKLLKKL[Nle(6-COOH)]-NH2)
[1]
  selectivity ratio: 17.1
[2]
  IC50 at 1 h: 26.4 µM
[4]
  selectivity ratio: 25.4
MCF7
  IC50: 14 µM
A549
  IC50: 11.2 µM
[14]
  IC50: 20.4 µM
[9]
  selectivity ratio: 9.42
HeLa
  IC50: 7.59 µM
[13]
  selectivity ratio: 13.8

## CC(C)C[C@H](NC(=O)[C@H](CC(C)C)NC(=O)[C@H](CCCCN)NC(=O)[C@H](CCCCN)NC(=O)[C@H](CC(C)C)NC(=O)[C@H](CCC(=O)O)NC(=O)[C@H](CCCCN)NC(=O)[C@H](CCCCN)NC(=O)[C@H](CC(C)C)NC(=O)[C@H](CC(C)C)NC(=O)[C@H](CCCCN)NC(=O)[C@H](CCCCN)NC(=O)[C@H](CC(C)C)NC(=O)[C@@H](N)CC(C)C)C(N)=O (H-LLKKLLKKELKKLL-NH2)
[1]
  selectivity ratio: 1.04
[2]
  IC50 at 1 h: 146 µM
[4]
  selectivity ratio: 4.18
MCF7
  IC50: 181 µM
A549
  IC50: 482 µM
[14]
  IC50: 217 µM
[9]
  selectivity ratio: 2.3
HeLa
  IC50: 120 µM
[13]
  selectivity ratio: 2.76

## CC(C)C[C@H](NC(=O)[C@H](CC(C)C)NC(=O)[C@H](CCCCN)NC(=O)[C@H](CCCCN)NC(=O)[C@H](CC(C)C)NC(=O)[C@H](CC(C)C)NC(=O)[C@H](CCCCN)NC(=O)[C@H](CCCCN)NC(=O)[C@H](CC(C)C)NC(=O)[C@H](CC(C)C)NC(=O)[C@H](CCCCN)NC(=O)[C@H](CCCCN)NC(=O)[C@H](CCC(=O)O)NC(=O)[C@@H](N)CC(C)C)C(N)=O (H-LEKKLLKKLLKKLL-NH2)
[1]
  selectivity ratio: 2.42
[2]
  IC50 at 1 h: 59.2 µM
[4]
  selectivity ratio: 4.62
MCF7
  IC50: 51.2 µM
A549
  IC50: 49.4 µM
[14]
  IC50: 46.4 µM
[9]
  selectivity ratio: 2.58
HeLa
  IC50: 25.8 µM
[13]
  selectivity ratio: 2.33

## CC(C)C[C@H](NC(=O)[C@H](CC(C)C)NC(=O)[C@H](CCCCN)NC(=O)[C@H](CCCCN)NC(=O)[C@H](CC(C)C)NC(=O)[C@H](CC(C)C)NC(=O)[C@H](CCCCN)NC(=O)[C@H](CCC(=O)O)NC(=O)[C@H](CC(C)C)NC(=O)[C@H](CC(C)C)NC(=O)[C@H](CCCCN)NC(=O)[C@H](CCCCN)NC(=O)[C@H](CC(C)C)NC(=O)[C@@H](N)CC(C)C)C(N)=O (H-LLKKLLEKLLKKLL-NH2)
[1]
  selectivity ratio: 2.49
[2]
  IC50 at 1 h: 4.9 µM
[4]
  selectivity ratio: 3.41
MCF7
  IC50: 4.67 µM
A549
  IC50: 3.93 µM
[14]
  IC50: 4.5 µM
[9]
  selectivity ratio: 2.18
HeLa
  IC50: 2.87 µM
[13]
  selectivity ratio: 2.1

## CC(C)C[C@H](NC(=O)[C@H](CC(C)C)NC(=O)[C@H](CCCCN)NC(=O)[C@H](CCC(=O)O)NC(=O)[C@H](CC(C)C)NC(=O)[C@H](CC(C)C)NC(=O)[C@H](CCCCN)NC(=O)[C@H](CCCCN)NC(=O)[C@H](CC(C)C)NC(=O)[C@H](CC(C)C)NC(=O)[C@H](CCCCN)NC(=O)[C@H](CCCCN)NC(=O)[C@H](CC(C)C)NC(=O)[C@@H](N)CC(C)C)C(N)=O (H-LLKKLLKKLLEKLL-NH2)
[1]
  selectivity ratio: 3.48
[2]
  IC50 at 1 h: 4.49 µM
[4]
  selectivity ratio: 3.15
MCF7
  IC50: 7.66 µM
A549
  IC50: 5.01 µM
[14]
  IC50: 5.73 µM
[9]
  selectivity ratio: 3.04
HeLa
  IC50: 5.53 µM
[13]
  selectivity ratio: 2.28

## CC(C)C[C@H](NC(=O)[C@H](CC(C)C)NC(=O)[C@H](CCCCN)NC(=O)[C@H](CCCCN)NC(=O)[C@H](CCC(=O)O)NC(=O)[C@H](CC(C)C)NC(=O)[C@H](CCCCN)NC(=O)[C@H](CCCCN)NC(=O)[C@H](CC(C)C)NC(=O)[C@H](CC(C)C)NC(=O)[C@H](CCCCN)NC(=O)[C@H](CCCCN)NC(=O)[C@H](CC(C)C)NC(=O)[C@@H](N)CC(C)C)C(N)=O (H-LLKKLLKKLEKKLL-NH2)
[1]
  selectivity ratio: 5.74
[2]
  IC50 at 1 h: 92.5 µM
[4]
  selectivity ratio: 11.4
MCF7
  IC50: 97.1 µM
A549
  IC50: 87.1 µM
[14]
  IC50: 78.9 µM
[9]
  selectivity ratio: 6.34
HeLa
  IC50: 43.7 µM
[13]
  selectivity ratio: 5.15
